Data reported in PMC8619673 (Cells, 2021).

Key:
Aβ-GFP SH-SY5Y cells = assay: Aβ-GFP fluorescence (Aβ-GFP folding reporter); assay type: cell-based, Human; conditions: 1–5 μM, normalized with cell number, day 8
Method: To induce neuronal differentiation, 2 × 10^4 Aβ-GFP SH-SY5Y cells were seeded on a 96-well plate with retinoic acid (10 µM; Sigma-Aldrich). Cells were pretreated with tested compounds (0.2–5 µM) on day 2 for 8 h and then with doxycycline (5 μg/mL) to induce Aβ-GFP expression. Medium containing retinoic acid compound and doxycycline was refreshed every 2 days for 6 days. Then, cells were stained with Hoechst 33342 (0.1 µg/mL; Sigma-Aldrich) at 37 °C for 30 min. Cell images were recorded at 482/35 nm excitation and 536/40 nm emission wavelengths (ImageXpres Micro Confocal High-Content Imaging System; Molecular Devices, Sunnyvale, CA, USA), and analyzed by MetaXpress (Molecular Devices).

TRKB = assay: Western blot, TRKB and p-TRKB; assay type: cell-based, Human; conditions: 5 µM; for p-TRKB (Y516) protein level relative to uninduced cells (100%): induced untreated 40%; for p-TRKB (Y817) protein level relative to uninduced cells (100%): induced untreated 71%; for TRKB expression relative to uninduced cells (100%): scrambled shRNA-infected Aβ-expressing cells, untreated 80%
Method: (§1) Cellular proteins were prepared using a lysis buffer containing NaCl (150 mM), ethylene diamine tetraacetic acid (EDTA, 1 mM, pH8.0), Tris-HCl (50 mM, pH8.0), ethylene glycol tetraacetic acid (EGTA, 1 mM, pH8.0), sodium dodecyl sulfate (SDS, 0.1%), sodium deoxycholate (SD, 0.5%), Triton X-100 (1%), and protease (Sigma-Aldrich), and phosphatase (Abcam, Cambridge, MA, USA) inhibitor cocktails. After quantitation by protein assay kit (Bio-Rad, Hercules, CA, USA), 20 µg proteins were separated by SDS-polyacrylamide (10%) gel electrophoresis and transferred to polyvinylidene difluoride (PVDF) membranes (Sigma-Aldrich) using a Mini Trans-Blot cell (Bio-Rad). After blocking, the membrane was probed with anti-TRKB, anti-p-TRKB (Y516), anti-p-TRKB (Y817) (1:500; Cell Signaling, Danvers, MA, USA), anti-ERK, anti-p-ERK (T202/Y204) (1:1000; Cell Signaling), anti-AKT, anti-p-AKT (S473) (1:1000; Cell Signaling), anti-CREB, anti-p-CREB (S133) (1:1000; Millipore, Billerica, MA, USA), anti-BDNF, anti-BCL2 (1:500; Santa Cruz Biotechnology, Santa Cruz, CA, USA), anti-BAX (1:1000; Cell Signaling), anti-β-tubulin (1:500; Sigma-Aldrich), or anti-GAPDH (1:1000, MDBio, Taipei, Taiwan) antibody. The immune complexes were detected using goat anti-mouse or goat anti-rabbit IgG antibody conjugated with horseradish peroxidase (1:5000; GeneTex, Irvine, CA, USA) and chemiluminescent substrate (Millipore).
Lentiviral short hairpin RNA (shRNA) targeting TRKB (TRCN0000002243, TRCN0000002245, and TRCN0000002246) and a negative-scrambled control (TRC2.Void) were obtained from the National RNAi Core Facility, IMB/GRC, Academia Sinica (Taipei, Taiwan). As described, cells were plated on 6- or 24-well plates, with retinoic acid added on day 1. Cells were infected with lentivirus (multiplicity of infection, 3 for each shRNA), with polybrene (8 µg/mL; Sigma-Aldrich) on the next day. Cells were pretreated with tested compounds (5 µM) for 8 h after changing medium, followed by doxycycline on day 3. Cells were collected for further analysis on day 9. The hairpin sequences of targeting shRNA were below: • TRCN0000002243: 5’-[…]ctcgag[…]-3’ • TRCN0000002245: 5’-[…]ctcgagATGTT-[…]-3’ • TRCN0000002246: 5’-[…]ctcgag[…]-3’ • TRC2.Void: 5’-[…]ctcgag[…]-3’

BDNF = assay: Western blot, BDNF; assay type: cell-based, Human; conditions: 5 µM; for BDNF 14 kDa protein level relative to uninduced cells (100%): induced untreated 42%; for BDNF 32 kDa protein level relative to uninduced cells (100%): induced untreated 88%
Method: as §1

BAX = assay: Western blot, BAX; assay type: cell-based, Human; conditions: 5 µM; induced untreated 182%
Method: as §1

in vitro = conditions: PAMPA
Method: PAMPA was used to predict the penetration of the tested compounds across the BBB. […] The filter PVDF membrane (pore size 0.45 μm; Millipore) was coated with 4 μL of porcine polar brain lipid (20 mg/mL; Avanti Polar Lipids, Alabaster, AL, USA) in dodecane and the acceptor well filled with 200 μL of 5% DMSO in PBS. The filter plate was carefully placed on the donor plate to form a sandwich plate at room temperature for 18 h. After the permeation time, the filter and donor plates were separated. The concentration of the tested compound in the donor and acceptor wells was measured by an AB Sciex QTrap 5500 mass spectrometer (Applied Biosystems) linked to a 1200 HPLC system (Agilent Technologies, Palo Alto, CA, USA). The concentrations of the QC compounds were determined by a Tecan Infinite M200 Pro microplate reader (Switzerland). The effective permeability coefficient (Pe) was calculated as described. Each compound was tested in triplicate.

[1] = BBB Permeability Classification
[2] = Measured Pe (effective permeability)

SMILES | GFP fluorescence intensity relative to untreated cells (100%) (Aβ-GFP SH-SY5Y cells) | p-TRKB (Y516) protein level relative to uninduced cells (100%) (TRKB) | p-TRKB (Y817) protein level relative to uninduced cells (100%) (TRKB) | TRKB expression relative to uninduced cells (100%) (TRKB) | BDNF 14 kDa protein level relative to uninduced cells (100%) (BDNF) | BDNF 32 kDa protein level relative to uninduced cells (100%) (BDNF) | BAX protein level relative to uninduced cells (100%) (BAX) | Papp at 18 h, 1 μM (in vitro; [1]) | Papp at 18 h, 1 μM (in vitro; [2])
CCOC(=O)c1cc2c(O)cccc2oc1=O [ZN014, ethyl 5-hydroxy-2-oxo-2H-chromene-3-carboxylate] | 111–119% | 92–100% | 94–108% | 77–81% | 124–140% | 113–119% | 126% | < 2 ×10⁻⁶ cm/s | 0.56 ± 0.01 ×10⁻⁶ cm/s
O=C(/C=C/c1ccccc1O)c1c(O)c2ccccc2oc1=O [ZN015, (E)-4-hydroxy-3-(3-(2-hydroxyphenyl)acryloyl)-2H-chromen-2-one] | 113–125% | 92–100% | 94–108% | 77–81% | 124–140% | 113–119% | 126% | > 4 ×10⁻⁶ cm/s | 5.16 ± 0.11 ×10⁻⁶ cm/s
